Experimental data from PMC7238232, “Acamprosate Is a Substrate of the Human Organic Anion Transporter (OAT) 1 without OAT3 Inhibitory Properties: Implications for Renal Acamprosate Secretion and Drug–Drug Interactions” (Pharmaceutics, 2020).
“Also recorded” adds a separate entry of the source. Read-outs that look alike come from different tables or passages of the source.

Legend:
OAT1 = biological target: T1, OAT1 (Homo sapiens, UniProt Q4U2R8); experiment: [14C]-PAH uptake and its inhibition in HEK293-Flp-In OAT1 cells
T1 sequence (Q4U2R8 1-563): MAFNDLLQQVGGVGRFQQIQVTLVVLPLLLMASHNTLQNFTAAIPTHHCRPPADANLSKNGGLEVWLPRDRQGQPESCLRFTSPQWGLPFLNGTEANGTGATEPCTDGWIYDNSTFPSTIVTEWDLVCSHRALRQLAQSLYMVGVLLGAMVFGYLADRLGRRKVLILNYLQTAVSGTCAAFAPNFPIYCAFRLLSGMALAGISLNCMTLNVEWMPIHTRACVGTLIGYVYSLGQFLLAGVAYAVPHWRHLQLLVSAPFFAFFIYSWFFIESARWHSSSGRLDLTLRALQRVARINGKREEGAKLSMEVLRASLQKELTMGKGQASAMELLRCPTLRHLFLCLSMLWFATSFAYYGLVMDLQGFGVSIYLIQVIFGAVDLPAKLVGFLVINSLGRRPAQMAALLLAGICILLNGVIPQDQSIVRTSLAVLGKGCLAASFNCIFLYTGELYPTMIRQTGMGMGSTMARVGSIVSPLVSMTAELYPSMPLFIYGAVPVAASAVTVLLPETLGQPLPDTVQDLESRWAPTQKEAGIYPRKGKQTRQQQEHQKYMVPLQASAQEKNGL
Method: (§1) All uptake experiments were performed on 24- or 96-well plates. Before the experiment initiation, the cells were incubated with either 500 or 200 µL∙well^−1 prewarmed buffer for 10 min at 37 °C in a microplate incubator (VWR International AB, Stockholm, Sweden), without shaking. […] The experiment was stopped by adding 200 µL∙well^−1 of ice-cold buffer and subsequent rinse three times with the same amount of buffer. In Lab. 1 the sample analysis of the OAT1/OAT3/mock studies consisted in removing the rinsing buffer and lysing the cells with 70 µL 1M NaOH, following by incubation for 60 min at 37 °C and 100 rpm. A total of 50 µL of cell lysate from each well was transferred to 96-well Luma plates bottom coated with dry scintillant. Then, 2∙20 µL of each donor and three 50 µL blank samples were applied on the same plate. The dry plates were covered with transparent seals and analyzed using a TopCount NXT Microplate Scintillation and Luminescence Counter (Perkin Elmer, Waltham, MA, USA). The remaining 20 µL cell lysate was neutralized with 20 µL 1M HCl∙well^−1, samples were mixed thoroughly and the total protein content in all the wells was measured using a BCA protein assay kit, microplate method, and a Tecan Safire II fluorometer (Tecan Austria GmbH, Grödig, Austria). For the experiments in Lab. 2, the cells were lysed by adding 200 µL 0.1% Triton X-100 and incubated for 5 min at 37 °C and 100 rpm. […] The total protein content was measured by using a BCA protein assay kit and a FLUOStar Omega fluorescence microplate reader (BMG Labtech, Ortenberg, Germany). The protein assay for the OAT3 and mock cell lines was performed in four independent wells of each cell line, seeded and treated in the same manner as the cells used in the uptake assay. For all the OAT1, OAT3, and mock isotope uptake studies, the radiolabelled tracer accumulation (pmol) in each well was calculated by first determining the activity of the isotope (DPM∙pmol^−1) from the radioactivity (DPM) of the donor sample divided by the theoretical isotope concentration (pmol), then dividing the total radioactivity in the well (DPM) to the specific activity of the isotope (DPM∙pmol^−1).
(§2) A range of preincubation solutions was prepared at the same concentrations of acamprosate applied in the inhibition assays. Acamprosate was dissolved in HBSS buffered with 10 mM HEPES and the pH was adjusted to 7.40 ± 0.01. The preincubation solutions were prewarmed to 37 °C and applied to the corresponding cells after removing the cell growth medium. The preincubation was done for 3 h, at 37 °C, without shaking. After the preincubation, the solutions were removed, and the inhibition experiment was performed as described in the Section 2.6.
The obtained intracellular amounts (pmol) were normalized to the assay time (min) and cell surface area (cm^2) or protein amount (mg protein) to obtain a term hereafter referred to as uptake rate. The uptake rate of acamprosate as a function of concentration was fitted to a Michaelis–Menten type equation which includes a saturable and a non-saturable uptake component, (1) V=Vmax · [S]/Km +[S]+P · [S] where V is the substrate uptake rate; Vmax is the maximal uptake rate; P is a constant related to non-saturable apparent uptake, i.e., factors such as passive diffusion, unspecific binding and residual compound present after washing steps, and [S] is the substrate concentration (µM). […] Assuming competitive interaction, equilibrium dissociation constants, Ki, were calculated from the IC50 value for each substrate/inhibitor pair, at substrate Km, using the Cheng–Prusoff equation [24].

OAT3 = biological target: T2, OAT3 (Homo sapiens, UniProt Q8TCC7); experiment: [3H]-E3S uptake and its inhibition in HEK293-Flp-In OAT3 cells; assay type: cell-based
T2 sequence (Q8TCC7 1-542): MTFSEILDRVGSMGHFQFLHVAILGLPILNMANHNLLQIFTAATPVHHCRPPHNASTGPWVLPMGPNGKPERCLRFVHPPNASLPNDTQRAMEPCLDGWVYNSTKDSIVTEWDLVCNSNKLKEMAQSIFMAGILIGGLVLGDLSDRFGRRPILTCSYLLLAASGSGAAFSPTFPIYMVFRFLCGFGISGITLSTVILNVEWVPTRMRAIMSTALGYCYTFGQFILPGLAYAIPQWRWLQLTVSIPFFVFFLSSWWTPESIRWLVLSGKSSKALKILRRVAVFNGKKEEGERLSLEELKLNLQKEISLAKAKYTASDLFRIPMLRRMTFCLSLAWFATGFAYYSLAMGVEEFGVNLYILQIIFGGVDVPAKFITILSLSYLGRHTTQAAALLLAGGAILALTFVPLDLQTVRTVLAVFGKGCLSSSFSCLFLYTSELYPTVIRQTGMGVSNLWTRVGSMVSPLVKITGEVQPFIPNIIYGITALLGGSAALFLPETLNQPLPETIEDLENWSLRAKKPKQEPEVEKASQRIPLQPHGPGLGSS
Method: as §1, §2
The obtained intracellular amounts (pmol) were normalized to the assay time (min) and cell surface area (cm^2) or protein amount (mg protein) to obtain a term hereafter referred to as uptake rate. […] Assuming competitive interaction, equilibrium dissociation constants, Ki, were calculated from the IC50 value for each substrate/inhibitor pair, at substrate Km, using the Cheng–Prusoff equation [24].

EAAT1 = settings: Caco-2 cells, preliminary data; cited from earlier work

## CC(=O)NCCCS(=O)(=O)O [acamprosate, acetylhomotaurinate]
OAT1; 9.5 µM [14C]-PAH, 200 µM PAH, 300 µM probenecid, 1000 and 10,000 µM acamprosate, Lab. 1
  effect on uptake of [14C]-PAH in OAT1 expressing cells: significantly decreased
OAT1; IC50, 3 h, inhibition of PAH uptake via OAT1, 9.5 µM [14C]-PAH, after 3 h preincubation with inhibitor, Lab. 2
  IC50: 582 µM
OAT1; IC50, inhibition of PAH uptake via OAT1, 9.5 µM [14C]-PAH, 3 min, applied concomitantly, Lab. 2
  IC50: 638 µM
OAT1; IC50, inhibition of PAH uptake via OAT1, 9.5 µM [14C]-PAH, 5 min, Lab. 1
  IC50: 1390 µM
OAT1; Ki of acamprosate on PAH uptake, fit to competitive kinetics (Equation 4), Lab. 2
  Ki: 1230 ± 341 µM
OAT1; Ki, inhibition of PAH uptake via OAT1, 3 h, Cheng-Prusoff, after 3 h preincubation, Lab. 2
  Ki: 287 µM
OAT1; Ki, inhibition of PAH uptake via OAT1, Cheng-Prusoff from IC50, competitive inhibition assumed, Lab. 1
  Ki: 1140 µM
OAT1; Ki, inhibition of PAH uptake via OAT1, Cheng-Prusoff, applied concomitantly, Lab. 2
  Ki: 315 µM
OAT1; OAT1 expressing cells, 0–10,000 µM acamprosate, 200 µM PAH, 300 µM probenecid, Lab. 2
  effect of 3 h preincubation on inhibition of [14C]-PAH uptake: no apparent effect
OAT1; OAT1 inhibiting Ki-value
  Ki: 638 µM
OAT1; PAH uptake with 0, 625, 1250 or 2500 µM acamprosate, Lab. 2
  mechanism of inhibition of OAT1-mediated PAH transport: competitive
OAT1; human, Ki values, inhibition of OAT1-mediated transport of PAH, range over the two laboratories
  Ki: 582 to 1230 µM
OAT1; human, hek293-flp-in oat1 cells, IC50, p-Aminohippuric Acid (PAH), input for DDI index, Table A1, for acamprosate interval of obtained values
  IC50: 287 to 1230 µM
OAT1; log IC50 ± log S.E.M., 3 h, inhibition of PAH uptake via OAT1, after 3 h preincubation, Lab. 2, log of IC50 in µM
  IC50: 631 µM
OAT1; log IC50 ± log S.E.M., inhibition of PAH uptake via OAT1, 9.5 µM [14C]-PAH, 5 min, Lab. 1, log of IC50 in µM
  IC50: 1260 µM
OAT1; log IC50 ± log S.E.M., inhibition of PAH uptake via OAT1, 3 min, applied concomitantly, Lab. 2, log of IC50 in µM
  IC50: 631 µM
OAT3
  IC50: > 10000 µM
OAT3; 0.02 µM [3H]-E3S, 200 µM E3S, 300 µM probenecid, 1000 or 10,000 µM acamprosate, Lab. 2
  effect on uptake of [3H]-E3S in OAT3 expressing cells: did not affect
OAT3; all applied acamprosate concentrations, up to 10 mM
  inhibition of [3H]-E3S uptake via OAT3, with and without 3 h preincubation: lack of inhibitory effect; also recorded: did not inhibit
OAT3; read-out: IC50, Estrone-3-Sulfate, input for DDI index, Table A1
  IC50: > 10000 µM
EAAT1
  inhibition of substrate transport via EAAT1: did not inhibit
